Assay results reported in patent publication US20100190187A1, “Screening Assays for Antagonists and Analyses of Cardiac Hypertrophy” (The Regents of the University of Michigan Office of …, priority 2006, published 2010).

What was measured:
[1] = tested on: HL-1 cells; assay: HL-1 cell growth and proliferation; format: cell-based, murine; settings: compared to HL-1 cells incubated with vehicle, FIG. 10
Method: (§1) HL-1 cells are obtained from Dr. W. C. Claycomb, Louisiana State University Medical Center, New Orleans, La. HL-1 cells (passages 55-75) are maintained at 37° C. under a 5% C02/air atmosphere in Claycomb medium (JRL Bioscience) supplemented with 10% fetal bovine serum, 0.29 mg/mL L-glutamine, 100 units/mL penicillin, 100 μg/mL streptomycin (all Gibco), and 0.1 mM norepinephrine (Sigma). The medium can be replaced approximately every 24 hours. HL-1 cells were grown in T25 culture flasks which were precoated overnight with 2 μg/cm fibronectin/0.02% gelatin solution. […]
HL-1 cells are grown in 10% FCS-supplemented medium or medium supplemented with 1% ITS and treated with either 0.1% EtOH (control vehicle), 1, 10 or 100 nM 1,25(OH) 2D3, 100 nM PMA or 1 mM PMA or 1 mM 24,25(OH) 2D3 or 25(OH)D3 for 2 or 4 days. At each time point the myocytes are removed from the dish using a Trypsin-EDTA solution (Sigma Chemical, St. Louis, Mo.) and counted using a Coulter Counter (Model ZF, Coulter Electronics, Hialeah, Fla.). Protein levels can be determined after 2 days using the Bradford protein assay (14). […] The HL-1 cells can then be examined on a flow cytometer (Coulter Elite, Coulter Electronics, Hialeah, Fla.) and cell cycle distribution can be determined by using MODFIT (v. 5.2).

[2] = tested on: HL-1 cells; assay: HL-1 cell morphology by light microscopy; format: cell-based, murine; settings: FIG. 11, versus control vehicle
Method: In some embodiments, screening assays can be included to determine whether the test compound can alter the structural morphology of the cardiac myocyte in cell culture. HL-1 cells can be incubated in the presence and absence of a test compound to determine whether structural changes can be observed by light microscopy.
as §1, with “solution. HL-1 cells were maintained until they reached confluence at which time the cells were removed by trypsinization and passed into another T25 culture flask coated with gelatin/fibronectin. Cells can be ultimately passed into T75 flasks to increase the number of cells prior to experimentation. Vitamin D experiments are performed in either T75 flasks, or Lab-Tech 2-well slides (for immunohistochemistry), 24 hours after a 1:2 split of confluent cells.” for “solution.”

## C=C1CC[C@H](O)C/C1=C/C=C1\CCC[C@]2(C)[C@@H]([C@H](C)CCCC(C)C)CC[C@@H]12 [Vitamin D3]
[1]
  inhibition of HL-1 growth / cellular proliferation: dose dependent inhibition of cellular proliferation
[1]; listed as Vit D
  inhibition of HL-1 growth / cellular proliferation: dose dependent inhibition of HL-1 growth
[2]
  structural morphology of HL-1 cells: growth and presence of structural appendages called dendrites
